Data: EPA's ToxRefDB 2

Assays:
[1] = tested on: mouse; details: Carcinogenicity, b6c3f1, Oral, Gavage/Intubation, dose end: 60 week, group: systemic
[2] = tested on: rat; details: Carcinogenicity; other; Oral; Gavage/Intubation; dose end: 78 week; group: systemic; systemic / in life observation / body weight / body weight gain + systemic / pathology microscopic / kidney / nephropathy + systemic / …
[3] = tested on: rabbit; details: Prenatal developmental toxicity study, new zealand white, Oral, Gavage/Intubation, dose end: 19 GD
[4] = tested on: rat; details: Subchronic oral toxicity in rodents, sprague dawley, Feed, dose end: 13 week, group: systemic
[5] = tested on: rat; details: Prenatal developmental toxicity study, other, Oral, Gavage/Intubation, dose end: 15 GD
[6] = tested on: rat; details: Developmental neurotoxicity study; wistar; Oral; Water; dose end: 60 PND; group: cannot be grouped; systemic / in life observation / body weight / offspring (pup) weight gain
[7] = tested on: rat; details: Developmental neurotoxicity study; other; Injection; Intraperitoneal; dose end: 141 PND; group: cannot be grouped; systemic / clinical chemistry / norepinephrine (noradrenaline) / norepinephrine (noradrenaline) + systemic / in life observation / water …
[8] = tested on: rat; details: Prenatal developmental toxicity study, sprague dawley, Oral, Feed, dose end: 15 GD
[9] = tested on: mouse; details: Carcinogenicity; b6c3f1; Oral; Feed; dose end: 2 year; group: systemic; systemic / in life observation / body weight / body weight
[10] = tested on: rat; details: Multigenerational reproductive toxicity study, other, Oral, Gavage/Intubation, dose end: 2 generation
[11] = tested on: rat; details: Combined chronic toxicity/carcinogenicity, fischer, Oral, Feed, dose end: 2 year, group: systemic
[12] = tested on: rat; details: Combined chronic toxicity/carcinogenicity, fischer, Oral, Feed, dose end: 2 year, group: systemic; remark: listed apart in the source
[13] = tested on: rat; details: Multigenerational reproductive toxicity study, other, Oral, Gavage/Intubation, dose end: 2 generation; remark: listed apart in the source
[14] = tested on: mouse; details: Subchronic oral toxicity in rodents, b6c3f1, Feed, dose end: 91 day, group: systemic, systemic / in life observation / body weight / body weight gain
[15] = tested on: rat; details: Fertility (Segment I), fischer, Oral, Feed, dose end: 16 weeks (premating)
[16] = tested on: rat; details: Subchronic oral toxicity in rodents, fischer, Feed, dose end: 26 week, group: systemic
[17] = tested on: mouse; details: Prenatal developmental toxicity study, cd1, Oral, Feed, dose end: 15 GD
[18] = tested on: dog; details: Chronic toxicity, beagle, Injection, Subcutaneous, dose end: 74 week, group: systemic
[19] = systemic / pathology microscopic / kidney / nephropathy
[20] = systemic / pathology microscopic / kidney / nephropathy + systemic / pathology microscopic / stomach / squamous cell carcinoma + systemic / …
[21] = group: developmental, developmental / developmental malformation / general / [other] + developmental / developmental malformation / bone / arthrogryposis + …
[22] = group: maternal, systemic / in life observation / body weight / body weight + systemic / in life observation / food consumption / food efficiency + systemic…
[23] = systemic / clinical chemistry / alanine aminotransferase (alt/sgpt) / alanine aminotransferase (alt/sgpt) + systemic / clinical chemistry / …
[24] = systemic / urinalysis / appearance and color / appearance and color + systemic / organ weight / liver / relative to body weight
[25] = group: developmental, developmental / developmental malformation / bone / incomplete ossification + developmental / developmental malformation / bone / unossified
[26] = group: maternal, reproductive / reproductive performance / aborted / aborted + systemic / in life observation / body weight / body weight + systemic / in …
[27] = group: developmental, developmental / developmental malformation / bone / [other] + developmental / developmental malformation / bone / bipartite ossification + …
[28] = group: maternal, reproductive / reproductive performance / resorptions / resorptions + systemic / in life observation / body weight / body weight + systemic…
[29] = group: offspring, developmental / developmental landmark / anogenital distance (agd) / anogenital distance (agd)
[30] = group: parental, systemic / in life observation / clinical signs / salivation + systemic / organ weight / kidney / absolute + systemic / organ weight / …
[31] = group: reproductive, reproductive / reproductive performance / fertility / fertility
[32] = systemic / organ weight / kidney / relative to body weight
[33] = systemic / in life observation / body weight / body weight + systemic / in life observation / food consumption / food consumption + systemic…
[34] = systemic / pathology gross / full gross necropsy / leukemia mononuclear + systemic / in life observation / body weight / body weight + …
[35] = group: offspring, systemic / clinical chemistry / triiodothyronine (t3) / triiodothyronine (t3), total + systemic / in life observation / body weight / …
[36] = group: reproductive, reproductive / offspring survival early / live fetuses / live fetuses
[37] = group: maternal, reproductive / reproductive performance / fertility / fertility
[38] = group: parental, systemic / hematology / erythrocyte (rbc) count differential / erythrocyte (rbc) + systemic / hematology / hemoglobin (hgb) / hemoglobin (…
[39] = systemic / hematology / anemia / anemia - macrocytic + systemic / hematology / erythrocyte (rbc) count differential / erythrocyte (rbc) + …
[40] = group: developmental, developmental / developmental malformation / bone / exencephaly + developmental / developmental malformation / bone / [other] + …
[41] = group: maternal, reproductive / offspring survival early / litter size / litter size + reproductive / offspring survival early / live fetuses / live fetuses…
[42] = systemic / clinical chemistry / cholesterol / cholesterol + systemic / clinical chemistry / glucose / glucose + systemic / hematology / […
[43] = systemic / clinical chemistry / cholesterol / cholesterol + systemic / hematology / [other] / [other] + systemic / hematology / hematocrit (…

In the case of `ClCC(Br)CBr` (stereo not drawn) [1,2-Dibromo-3-chloropropane], the LOAEL [1, 19] is reported as 110 mg/kg/day, the NOAEL [1, 19] is reported as under 110 mg/kg/day and the LEL [1, 20] is reported as 110 mg/kg/day. For the same molecule, the NEL [1, 20] was under 110 mg/kg/day, the LEL [2] was 15 mg/kg/day and the LOAEL [2] was 15 mg/kg/day. For the same molecule, the NEL [2] was under 15 mg/kg/day and the NOAEL [2] was under 15 mg/kg/day.

For `CCC(C)Nc1c([N+](=O)[O-])cc(C(C)(C)C)cc1[N+](=O)[O-]` (stereo not drawn) [Butralin], the LOAEL ([3]; group: developmental, developmental / developmental malformation / general / [other]) was 45 mg/kg/day, the LEL [3, 21] was 45 mg/kg/day and the NEL [3, 21] was 15 mg/kg/day. It also gave an NOAEL [3, 21] of 15 mg/kg/day, an LOAEL ([3]; group: maternal, systemic / in life observation / body weight / body weight + systemic / in life observation / food consumption / food efficiency) of 135 mg/kg/day and an LEL [3, 22] of 135 mg/kg/day. For the same molecule, the NEL [3, 22] was 45 mg/kg/day, the NOAEL [3, 22] was 45 mg/kg/day and the LOAEL [4, 23] was 50 mg/kg/day. It also gave an NOAEL [4, 23] of 10 mg/kg/day, an LEL [4, 24] of 10 mg/kg/day and an NEL [4, 24] of under 10 mg/kg/day. The LEL [5, 25] was 500 mg/kg/day, the LOAEL [5, 25] was 500 mg/kg/day and the NEL [5, 25] was under 500 mg/kg/day. The NOAEL [5, 25] was under 500 mg/kg/day, the LEL [5, 26] was 1250 mg/kg/day and the LOAEL [5, 26] was 1250 mg/kg/day. It also gave an NEL [5, 26] of 500 mg/kg/day and an NOAEL [5, 26] of 500 mg/kg/day.

`CC(C)NCC(O)COc1cccc2ccccc12.Cl` (stereo not drawn) [Propranolol hydrochloride] gave an LEL [6] of 10 mg/kg/day, an LOAEL [6] of over 10 mg/kg/day and an NEL [6] of under 10 mg/kg/day. It also gave an NOAEL [6] of at least 10 mg/kg/day, an LEL [7] of 5 mg/kg/day and an LOAEL [7] of over 5 mg/kg/day. It also gave an NEL [7] of under 5 mg/kg/day and an NOAEL [7] of at least 5 mg/kg/day.

Work on `CCCCOC(=O)c1ccccc1C(=O)OCc1ccccc1` [Butyl benzyl phthalate] yielded an LOAEL [8, 27] of over 1640 mg/kg/day, an NEL [8, 27] of 420 mg/kg/day and an NOAEL [8, 27] of at least 1640 mg/kg/day. The LEL ([8]; group: developmental, developmental / developmental malformation / bone / short supernumerary) was 1100 mg/kg/day, the LOAEL [8, 28] was over 1640 mg/kg/day and the NEL [8, 28] was 420 mg/kg/day. For the same molecule, the NOAEL [8, 28] was at least 1640 mg/kg/day, the LEL ([8]; group: maternal, systemic / in life observation / body weight / body weight + systemic / in life observation / body weight / body weight gain + systemic / in…) was 1100 mg/kg/day and the LEL [9] was 900 mg/kg/day. It also gave an LOAEL [9] of 900 mg/kg/day, an NEL [9] of under 900 mg/kg/day and an NOAEL [9] of under 900 mg/kg/day. It also gave an LEL [10, 29] of 100 mg/kg/day, an LOAEL [10, 29] of 100 mg/kg/day and an NEL [10, 29] of under 100 mg/kg/day. It also gave an NOAEL [10, 29] of under 100 mg/kg/day, an LEL ([10]; group: parental, systemic / in life observation / clinical signs / salivation + systemic / organ weight / kidney / absolute + systemic / organ weight / liver…) of 200 mg/kg/day and an LOAEL [10, 30] of over 400 mg/kg/day. It also gave an NEL [10, 30] of 100 mg/kg/day, an NOAEL [10, 30] of at least 400 mg/kg/day and an LEL [10, 31] of 400 mg/kg/day. The LOAEL [10, 31] was over 400 mg/kg/day, the NEL [10, 31] was 200 mg/kg/day and the NOAEL [10, 31] was at least 400 mg/kg/day. The LOAEL ([11]; systemic / in life observation / body weight / body weight + systemic / pathology microscopic / pancreas / hyperplasia) was 500 mg/kg/day, the NOAEL ([11]; systemic / in life observation / body weight / body weight + systemic / pathology microscopic / pancreas / hyperplasia + systemic / …) was 240 mg/kg/day and the LEL [11, 32] was 120 mg/kg/day. For the same molecule, the NEL [11, 32] was under 120 mg/kg/day, the LEL [12, 33] was 300 mg/kg/day and the NEL [12, 33] was under 300 mg/kg/day. For the same molecule, the LOAEL [12, 34] was over 600 mg/kg/day, the NOAEL [12, 34] was at least 600 mg/kg/day and the LEL [13, 35] was 100 mg/kg/day. For the same molecule, the LOAEL [13, 35] was over 500 mg/kg/day, the NEL [13, 35] was 20 mg/kg/day and the NOAEL [13, 35] was at least 500 mg/kg/day. For the same molecule, the LEL [13, 30] was 100 mg/kg/day, the LOAEL [13, 30] was over 500 mg/kg/day and the NEL [13, 30] was 20 mg/kg/day. It also gave an NOAEL [13, 30] of at least 500 mg/kg/day, an LEL [13, 36] of 500 mg/kg/day and an LOAEL [13, 36] of over 500 mg/kg/day. It also gave an NEL [13, 36] of 100 mg/kg/day, an NOAEL [13, 36] of at least 500 mg/kg/day and an LEL [14] of 240 mg/kg/day. It also gave an LOAEL [14] of over 3750 mg/kg/day, an NEL [14] of under 240 mg/kg/day and an NOAEL [14] of at least 3750 mg/kg/day. The LEL [15, 37] was 2200 mg/kg/day, the LOAEL [15, 37] was over 2200 mg/kg/day and the NEL [15, 37] was 200 mg/kg/day. The NOAEL [15, 37] was at least 2200 mg/kg/day, the LOAEL [15, 38] was over 2200 mg/kg/day and the NEL [15, 38] was 20 mg/kg/day. The NOAEL [15, 38] was at least 2200 mg/kg/day, the LEL ([15]; group: parental, systemic / pathology gross / sperm measure / sperm count) was 200 mg/kg/day and the LOAEL [16, 39] was 1250 mg/kg/day. For the same molecule, the NEL [16, 39] was 60 mg/kg/day, the NOAEL [16, 39] was 550 mg/kg/day and the LEL ([16]; systemic / hematology / erythrocyte (rbc) count differential / erythrocyte (rbc)) was 180 mg/kg/day. For the same molecule, the LEL ([17]; group: developmental, developmental / developmental malformation / bone / exencephaly) was 910 mg/kg/day, the LOAEL [17, 40] was over 2330 mg/kg/day and the NEL [17, 40] was 182 mg/kg/day. It also gave an NOAEL [17, 40] of at least 2330 mg/kg/day, an LEL ([17]; group: maternal, reproductive / offspring survival early / litter size / litter size + reproductive / offspring survival early / live fetuses / live fetuses) of 910 mg/kg/day and an LOAEL [17, 41] of over 2330 mg/kg/day. The NEL [17, 41] was 182 mg/kg/day and the NOAEL [17, 41] was at least 2330 mg/kg/day.

Molecule `CC(=O)[C@H]1CC[C@H]2[C@@H]3CCC4=CC(=O)CC[C@]4(C)[C@H]3CC[C@]12C` [Progesterone] has an LOAEL [18, 42] of over 22.5 mg/kg/day, an NOAEL [18, 42] of at least 22.5 mg/kg/day and an LEL [18, 43] of 2.5 mg/kg/day. It also gave an NEL [18, 43] of under 2.5 mg/kg/day.
